Test results published in patent US5998366A, “Method for ameliorating glutamic acid decarboxylase associated autoimmune disorders” (The Regents of the University of California, priority 1997, dated 1999).

Experiments:
[1] = test system: IDDM associated autoantibodies; assay: ELISA of patient and control sera on plate-bound human GAD65 peptides; format: binding; settings: none of the control sera
Description: A set of peptides (20-23 amino acids in length, with 5 aa overlaps) that span the human GAD65 molecule were synthesized to determine whether sera from most individuals at risk, pre-IDDM and with IDDM (in contrast to healthy controls) do in fact produce antibodies that differentially recognize GAD65 linear epitopes distributed throughout the molecule.
Patient sera and most control sera were those used in a previous study (Kaufman, et al., J. Clin. Investigation, supra) All samples were coded and tested in a blind manner. Peptides were synthesized using an automatic instrument (Applied Biosystems, Foster City, Calif.) and standard conditions. Peptides were dissolved in 60 mM sodium bicarbonate buffer (pH 9.6) at 20 ug/ml and 100 ul of each was added to duplicated wells of a 96 well Nunc-Immuno Plate. Peptides were allowed to bind at 4° C. overnight. The plates were then washed three times with PBS+0.1% Tween 20 (wash buffer), after which the plates were pre-absorbed with 3% BSA in sodium bicarbonate buffer for 0.5 hours at 37° C., or at room temperature overnight. The plates were then washed 5 times with the above wash buffer. 100 ul of serum at a 1/300 dilution in PBS+0.1% Tween 20 and 1% BSA was added to each well and antibodies were allowed to bind for 1 hour at 37° C. […] The color development was measured at 410 nm using an ELISA plate reader (ICN, Biomedicals, Costa Mesa, Calif.). […]

autoantibodies to GAD65 = assay: Immunoprecipitation of 35S-GAD65 by sera drawn before IDDM onset; format: binding, human; settings: sera drawn 3 to 66 months before IDDM onset
Protocol: 5. Islet Cell Extractions and Immunoprecipitations. Islet cells were extracted as previously described by Atkinson, et al. (Lancet, 335:1357-1360, 1990) with the following modifications. […] Following another incubation with protein A Sepharose CL-4B (1 h, 4° C.), the complexes were then washed 5 times with 50 mM Tris HCL (pH 7.4) with 0.1% SDS, 1.0% Triton X-114, and 2 mM EDTA, and then washed again one time in double distilled water. The protein A Sepharose CL-4B was then boiled in Laemmli sample buffer (Laemmli, Nature, 227:680-685, 1970), and the samples were subjected to SDS-PAGE and fluororadiography (Kodak, X-omat AR5) using Enhance (New England Nuclear). Alternatively, the autoradiographs were analyzed by a BETAGEN (Boston, Mass.) analyzer. Both 64 KA positive and negative sera were used in each assay, to serve as interassay controls. All fluororadiographs were analyzed and rated as positive or negative after comparison with the known interassay controls.
A similar rating procedure was employed for the intensity of bands corresponding to immunoprecipitated ^35 S-GAD65 and ^35 S-GAD67.
6. Immunoprecipitations. […]
8. […] After sonication, cell debris was removed by centrifugation and protein concentration was measured (Bradford, Anal.Biochem., 72:248, […]) in the supernatant (supernatant was stored in aliquots at -70° C.).

Molecule | share of patients recognizing the peptide [1] | specimens immunoreactive with the labeled protein (autoantibodies to GAD65)
KPCSCSKVDVNYAFLHATDL [Peptide 6] | 25-37% | –
^35 S-GAD65: 35S-labeled rat GAD65 produced in a bacterial expression system (protein, UniProt Q05683 1-585, looked up, 35S label, 35S-labeled rat GAD65 produced in a bacterial expression system) Glutamate decarboxylase 2: MASPGSGFWSFGSEDGSGDPENPGTARAWCQVAQKFTGGIGNKLCALLYGDSEKPAESGGSVTSRAATRKVACTCDQKPCSCPKGDVNYALLHATDLLPACEGERPTLAFLQDVMNILLQYVVKSFDRSTKVIDFHYPNELLQEYNWELADQPQNLEEILTHCQTTLKYAIKTGHPRYFNQLSTGLDMVGLAADWLTSTANTNMFTYEIAPVFVLLEYVTLKKMREIIGWPGGSGDGIFSPGGAISNMYAMLIARYKMFPEVKEKGMAAVPRLIAFTSEHSHFSLKKGAAALGIGTDSVILIKCDERGKMIPSDLERRILEVKQKGFVPFLVSATAGTTVYGAFDPLLAVADICKKYKIWMHVDAAWGGGLLMSRKHKWKLNGVERANSVTWNPHKMMGVPLQCSALLVREEGLMQSCNQMHASYLFQQDKHYDLSYDTGDKALQCGRHVDVFKLWLMWRAKGTTGFEAHIDKCLELAEYLYNIIKNREGYEMVFDGKPQHTNVCFWFVPPSLRVLEDNEERMSRLSKVAPVIKARMMEYGTTMVSYQPLGDKVNFFRMVISNPAATHQDIDFLIEEIERLGQDL | – | 9 out of 12
